Measurements from US20140005163A1 (NOVARTIS AG, priority 2010, published 2014).

Experiments:
PI3K delta = target: T1, PI3K delta (Homo sapiens, UniProt O00329); experiment: PI3K delta kinase assay (Kinase-Glo luminescence); type: biochemical
T1 construct: for the full-length p110-d subunit are generated and fused by overlapping PCR; p85(iSH2) fusion partner (see partner chain) (N); His tag (C); made in house; host or cells: baculovirus; Tn5 (Trichoplusia ni) or TiniPro insect cells
Outline: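 Recombinant p85(iSH2)-Gly linker-p110δ full-length construct (BV1060, C-terminal His tag) was used at 10 nM with 10 μg/mL phosphatidylinositol and 1 μM ATP in 10 mM Tris-HCl pH 7.5, 3 mM MgCl2, 50 mM NaCl, 0.05% CHAPS, 1 mM DTT. After 60 min at room temperature, remaining ATP was measured by Kinase-Glo luminescence.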

[1] = tested on: PKB Ser473 phosphorylation in Rat1-myr-HA-p110 alpha cells; experiment: Reverse protein array assay, PKB Ser473 phosphorylation in Rat1-myr-p110 alpha cells; type: cell-based; conditions: 0.5 h, pAkt Ser473, 30 minutes compound incubation, read-out: p-PKB IC50
Outline: (§1)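 Measured: PKB Ser473 phosphorylation by reverse protein array in Rat1 cells expressing myr-HA-p110 alpha, beta or delta, after 30 min compound treatment at 37 °C with 0.2% DMSO vehicle.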

[2] = tested on: PKB Ser473 phosphorylation in Rat1-myr-HA-p110 beta cells; experiment: Reverse protein array assay, PKB Ser473 phosphorylation in Rat1-myr-p110 beta cells; type: cell-based; conditions: 0.5 h, pAkt Ser473, 30 minutes incubation, read-out: p-PKB IC50
Outline: as §1

[3] = tested on: PKB Ser473 phosphorylation in Rat1-myr-HA-p110 delta cells; experiment: Reverse protein array assay, PKB Ser473 phosphorylation in Rat1-myr-p110 delta cells; type: cell-based; conditions: read-out: p-PKB IC50
Outline: as §1

T1 sequence (O00329 with tags, fused parts or gaps limits assumed): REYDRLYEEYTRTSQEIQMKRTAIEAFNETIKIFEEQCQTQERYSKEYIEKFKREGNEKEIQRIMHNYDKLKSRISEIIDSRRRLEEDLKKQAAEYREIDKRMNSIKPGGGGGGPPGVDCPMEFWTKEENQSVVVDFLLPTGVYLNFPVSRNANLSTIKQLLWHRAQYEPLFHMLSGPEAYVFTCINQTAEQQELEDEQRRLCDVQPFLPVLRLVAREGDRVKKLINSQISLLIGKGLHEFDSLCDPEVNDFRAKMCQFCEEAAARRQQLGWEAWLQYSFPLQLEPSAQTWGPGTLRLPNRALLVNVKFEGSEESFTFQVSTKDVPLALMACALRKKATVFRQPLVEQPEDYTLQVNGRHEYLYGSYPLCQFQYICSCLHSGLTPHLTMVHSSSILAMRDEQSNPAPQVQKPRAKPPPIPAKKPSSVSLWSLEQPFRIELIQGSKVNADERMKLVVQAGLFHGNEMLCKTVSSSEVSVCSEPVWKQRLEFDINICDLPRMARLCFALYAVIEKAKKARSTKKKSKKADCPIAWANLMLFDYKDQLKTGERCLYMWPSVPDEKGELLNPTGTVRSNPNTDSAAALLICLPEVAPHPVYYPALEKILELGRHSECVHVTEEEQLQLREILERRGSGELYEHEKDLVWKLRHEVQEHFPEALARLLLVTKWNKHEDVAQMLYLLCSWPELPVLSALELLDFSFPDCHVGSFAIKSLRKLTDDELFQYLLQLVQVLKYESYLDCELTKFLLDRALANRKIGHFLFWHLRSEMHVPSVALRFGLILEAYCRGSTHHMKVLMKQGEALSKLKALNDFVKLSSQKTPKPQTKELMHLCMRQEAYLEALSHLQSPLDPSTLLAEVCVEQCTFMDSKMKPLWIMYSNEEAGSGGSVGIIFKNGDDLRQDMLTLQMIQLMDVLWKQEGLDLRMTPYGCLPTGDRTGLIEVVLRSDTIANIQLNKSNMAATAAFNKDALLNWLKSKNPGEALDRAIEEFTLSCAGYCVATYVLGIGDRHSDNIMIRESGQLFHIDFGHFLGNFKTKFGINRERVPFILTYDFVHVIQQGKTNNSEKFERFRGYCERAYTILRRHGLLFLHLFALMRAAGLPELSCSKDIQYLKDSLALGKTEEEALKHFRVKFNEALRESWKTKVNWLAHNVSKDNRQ

Compound | IC50 (PI3K delta) [nM] | IC50 [1] [nM] | IC50 [2] [nM] | IC50 [3] [nM]
CN(C)c1ccc(-c2ccc3ncc4c(c3c2)n(-c2cn(C)nc2Cl)c(=O)n4C)cn1 [Example 4.9, 1-(3-Chloro-1-methyl-1H-pyrazol-4-yl)-8-(6-dimethylamino-pyridin-3-yl)-3-methyl-1,3-dihydro-imidazo[4,5-c]quinolin-2-one] | 12 | 5 | 6 | 8
Cc1nn(C)cc1-n1c(=O)n(C)c2cnc3ccc(-c4cnc(N)c(C(F)(F)F)c4)cc3c21 [Example 25.1, 8-(6-Amino-5-trifluoromethyl-pyridin-3-yl)-1-(1,3-dimethyl-1H-pyrazol-4-yl)-3-methyl-1,3-dihydro-imidazo[4,5-c]quinolin-2-one] | 13 | 5 | 6 | 9
Cc1cc(-n2c(=O)n(C)c3cnc4ccc(-c5cnc(N)c(C(F)(F)F)c5)cc4c32)n(C)n1 [Example 25.6, 8-(6-Amino-5-trifluoromethyl-pyridin-3-yl)-1-(2,5-dimethyl-2H-pyrazol-3-yl)-3-methyl-1,3-dihydro-imidazo[4,5-c]quinolin-2-one] | 32 | 8 | 15 | 32
Cc1nn(C)cc1-n1c(=O)n(C)c2cnc3ccc(-c4cccc(NS(C)(=O)=O)c4)cc3c21 [Example 47, N-{3-[1-(1,3-dimethyl-1H-pyrazol-4-yl)-3-methyl-2-oxo-2,3-dihydro-1H-imidazo[4,5-c]quinolin-8-yl]-phenyl}-methanesulfonamide] | 178 | 73 | 196 | 839
Cc1nn(C)cc1-n1c(=O)n(C)c2cnc3ccc(-c4cncc(OC5CCC5)c4)cc3c21 [Example 60.1, 8-(5-Cyclobutoxy-pyridin-3-yl)-1-(1,3-dimethyl-1H-pyrazol-4-yl)-3-methyl-1,3-dihydro-imidazo[4,5-c]quinolin-2-one] | < 3 | < 5 | 23 | 33
Cc1nn(C)cc1-n1c(=O)n(C)c2cnc3ccc(-c4cccc(OC(C)C)c4)cc3c21 [Example 82, 1-(1,3-Dimethyl-1H-pyrazol-4-yl)-8-(3-isopropoxy-phenyl)-3-methyl-1,3-dihydro-imidazo[4,5-c]quinolin-2-one] | 77 | 44 | 284 | 314
CCN(CC)c1cncc(-c2ccc3ncc4c(c3c2)n(-c2cn(C)nc2C)c(=O)n4C)c1 [Example 95, 8-(5-Diethylamino-pyridin-3-yl)-1-(1,3-dimethyl-1H-pyrazol-4-yl)-3-methyl-1,3-dihydro-imidazo[4,5-c]quinolin-2-one] | 24 | < 5 | 17 | 25
Cc1nn(C)cc1-n1c(=O)n(C)c2cnc3ccc(-c4ccc(N5CCCC5)nc4)cc3c21 [Example 97, 1-(1,3-Dimethyl-1H-pyrazol-4-yl)-3-methyl-8-(6-pyrrolidin-1-yl-pyridin-3-yl)-1,3-dihydro-imidazo[4,5-c]quinolin-2-one] | 236 | 7 | 17 | 30
Cc1nn(C)cc1-n1c(=S)n(C)c2cnc3ccc(-c4cccnc4)cc3c21 [Example 128.1, 1-(1,3-Dimethyl-1H-pyrazol-4-yl)-3-methyl-8-pyridin-3-yl-1,3-dihydro-imidazo[4,5-c]quinoline-2-thione] | 22 | 5 | 27 | 127
CCn1cc(-n2c(=O)n(C)c3cnc4ccc(-c5cnc(N)c(Cl)c5)cc4c32)c(C)n1 [Example 148.3, 8-(6-Amino-5-chloro-pyridin-3-yl)-1-(1-ethyl-3-methyl-1H-pyrazol-4-yl)-3-methyl-1,3-dihydro-imidazo[4,5-c]quinolin-2-one] | 13 | < 5 | 10 | 14
Cc1cc(-n2c(=O)n(C)c3cnc4ccc(-c5cnc(F)c(N)c5)cc4c32)n(C)n1 [Example 149.3, 8-(5-Amino-6-fluoro-pyridin-3-yl)-1-(2,5-dimethyl-2H-pyrazol-3-yl)-3-methyl-1,3-dihydro-imidazo[4,5-c]quinolin-2-one] | 38 | 49 | 84 | 168

Second part, the molecule after the results:

IC50 (PI3K delta) [nM] | IC50 [1] [nM] | IC50 [2] [nM] | IC50 [3] [nM] | Compound
7 | 9 | 15 | 24 | CN(C)c1ncc(-c2ccc3ncc4c(c3c2)n(-c2cn(C)nc2Cl)c(=O)n4C)cn1 [Example 6.3, 1-(3-Chloro-1-methyl-1H-pyrazol-4-yl)-8-(2-dimethylamino-pyrimidin-5-yl)-3-methyl-1,3-dihydro-imidazo[4,5-c]quinolin-2-one]
3 | 35 | 64 | 84 | CNS(=O)(=O)c1cccc(-c2ccc3ncc4c(c3c2)n(-c2cn(C)nc2C)c(=O)n4C)c1 [Example 39, 3-[1-(1,3-Dimethyl-1H-pyrazol-4-yl)-3-methyl-2-oxo-2,3-dihydro-1H-imidazo[4,5-c]quinolin-8-yl]-N-methyl-benzenesulfonamide]
4 | 9 | 14 | 12 | CC(C)Oc1cncc(-c2ccc3ncc4c(c3c2)n(-c2cn(C)nc2Cl)c(=O)n4C)c1 [Example 58.2, 1-(3-Chloro-1-methyl-1H-pyrazol-4-yl)-8-(5-isopropoxy-pyridin-3-yl)-3-methyl-1,3-dihydro-imidazo[4,5-c]quinolin-2-one]
8 | 7 | 8 | 22 | Cc1nn(C)cc1-n1c(=O)n(C)c2cnc3ccc(-c4ccc(-c5ncc[nH]5)cc4)cc3c21 [Example 77, 1-(1,3-Dimethyl-1H-pyrazol-4-yl)-8-[4-(1H-imidazol-2-yl)-phenyl]-3-methyl-1,3-dihydro-imidazo[4,5-c]quinolin-2-one]
9 | 6 | 10 | 7 | CNc1ncc(-c2ccc3ncc4c(c3c2)n(-c2cn(C)nc2Cl)c(=O)n4C)cc1C [Example 119, 1-(3-Chloro-1-methyl-1H-pyrazol-4-yl)-3-methyl-8-(5-methyl-6-methylamino-pyridin-3-yl)-1,3-dihydro-imidazo[4,5-c]quinolin-2-one]
11 | < 5 | 6 | 10 | COc1ccc(-c2ccc3ncc4c(c3c2)n(-c2cn(C)nc2C)c(=S)n4C)cc1OC [Example 128.2, 8-(3,4-Dimethoxy-phenyl)-1-(1,3-dimethyl-1H-pyrazol-4-yl)-3-methyl-1,3-dihydro-imidazo[4,5-c]quinoline-2-thione]
4 | < 5 | 12 | 12 | CNc1ncc(-c2ccc3ncc4c(c3c2)n(-c2cn(C(C)C)nc2C)c(=O)n4C)cc1C(F)(F)F [Example 144.2, 1-(1-Isopropyl-3-methyl-1H-pyrazol-4-yl)-3-methyl-8-(6-methylamino-5-trifluoromethyl-pyridin-3-yl)-1,3-dihydro-imidazo[4,5-c]quinolin-2-one]
9 | 9 | 13 | 42 | CCNc1ncc(-c2ccc3ncc4c(c3c2)n(-c2cn(C)nc2C)c(=O)n4C)cc1C(F)(F)F [Example 145.2, 1-(1,3-Dimethyl-1H-pyrazol-4-yl)-8-(6-ethylamino-5-trifluoromethyl-pyridin-3-yl)-3-methyl-1,3-dihydro-imidazo[4,5-c]quinolin-2-one]
8 | 7 | 6 | 16 | Cc1nn(C(C)C)cc1-n1c(=O)n(C)c2cnc3ccc(-c4cnc(Cl)c(N)c4)cc3c21 [Example 152.1, 8-(5-Amino-6-chloro-pyridin-3-yl)-1-(1-isopropyl-3-methyl-1H-pyrazol-4-yl)-3-methyl-1,3-dihydro-imidazo[4,5-c]quinolin-2-one]
7 | 123 | 113 | 78 | Cc1nn(C)c(C)c1-n1c(=O)n(C)c2cnc3ccc(-c4cnc(Cl)c(N)c4)cc3c21 [Example 152.3, 8-(5-Amino-6-chloro-pyridin-3-yl)-3-methyl-1-(1,3,5-trimethyl-1H-pyrazol-4-yl)-1,3-dihydro-imidazo[4,5-c]quinolin-2-one]
6 | 40 | 119 | 111 | CCOCc1cc(-c2ccc3ncc4c(c3c2)n(-c2cn(C(C)C)nc2C)c(=O)n4C)cnc1N [Example 166.3, 8-(6-Amino-5-ethoxymethyl-pyridin-3-yl)-1-(1-isopropyl-3-methyl-1H-pyrazol-4-yl)-3-methyl-1,3-dihydro-imidazo[4,5-c]quinolin-2-one]
< 3 | 5 | 11 | 11 | CCOCc1cc(-c2ccc3ncc4c(c3c2)n(-c2cn(C)nc2Cl)c(=O)n4C)cnc1N [Example 166.4, 8-(6-Amino-5-ethoxymethyl-pyridin-3-yl)-1-(3-chloro-1-methyl-1H-pyrazol-4-yl)-3-methyl-1,3-dihydro-imidazo[4,5-c]quinolin-2-one]
